Source: patent US20080124366A1, “Methods and Compositions for Treating Tumors” (priority 2006, published 2008)
“Also recorded” adds a separate entry of the source.

Assays:
GL261 mouse glioma model = assay: Intratumoral CpG ODN administration in GL261 mouse glioma model; assay type: in vivo; settings: weakly immunogenic GL261 / GL261-Luc model
[1] = test system: cervical lymph node T cells and DCs; assay: Flow cytometry of draining cervical lymph nodes after s.c. vaccination; assay type: in vivo, C57BL/6 mice; settings: vs lysate or normal
Experimental: Flow cytometry. Normal B6 mice were vaccinated two times, one week apart with CpG/lysate, CpG, lysate, or were not vaccinated as the controls (n=4/group). Six days after the last vaccination, the left and right cervical lymph nodes of each mouse were harvested, counted for LN cell numbers, and analyzed by flow cytometry with various monoclonal antibodies (1 μg/10^6 cells) including FITC-anti-CD3, PE-anti-CD8, APC-anti-CD4, FITC-anti-CD1 1c, PE-anti-CCR7, and APC-anti-CD86 (eBioscience, San Diego, Calif.).
The ability of CpG ODN to activate and mature DCs to elicit T cell-mediated responses has been established. An experiment was conducted to characterize the effects of CpG/lysate vaccination on DCs and T cells in the draining lymph nodes. Normal B6 mice were vaccinated two times, one week apart, by subcutaneous (s.c.) injection with CpG ODN, tumor lysate, or CpG/lysate (n=4/group). Six days after the second vaccination, the draining cervical lymph nodes of each mouse were harvested, counted for total cell number, and analyzed by flow cytometry.

[2] = test system: intracranial GL261-Luc glioma; assay: s.c. vaccination of mice bearing intracranial GL261-Luc glioma, bioluminescent imaging and survival (Example 5); assay type: in vivo, C57BL/6 mice; settings: s.c. days 4, 11, 18
Experimental: Glioma model and in vivo imaging. Six to seven week old female C57BL/6 mice were purchased from Jackson Laboratory and maintained in a specific pathogen free (SPF) facility according to the guidelines of the University of Minnesota Animal Care and Use Committee (IACUC). For intracranial tumor inoculations, animals were deeply anesthetized with a ketamine/xylazine cocktail solution (53.7 mg/ml ketamine, 9.26 mg/ml xylazine) delivered at 1 ml/kg. 10,000 GL261-Luc cells in 1 μl of PBS were implanted stereotactically into the right striatum; coordinates were 2.2 mm lateral, and 0.5 mm posterior of bregma, and 3 mm ventral from the cortical surface of the brain. For imaging mice were deeply anesthetized by i.p. injection with avertin (225 mg/kg) and injected with 100 μl of luciferin (substrate for luciferase enzyme; 28.5 mg/ml, Xenogen®, Hopkinton, Mass.). Mice were imaged five minutes after luciferin injection using the Ivis 50 system (Xenogen®). […] Luciferase activity was analyzed using living image software (version 2.5; Xenogen®) according to the manufacturer's instructions. […]
Statistical analysis. […] Differences in animal survival between treatment groups were evaluated by log-rank statistical analysis with Sigmastat software (Systat Software, Inc. San Jose, Calif.); only P values <0.05 were considered significant.

[3] = test system: Human brain tumor stem cells; assay: Incubation of human brain tumor stem cells in INF-gamma; assay type: cell-based

Molecule	efficacy of intratumoral administration (GL261 mouse glioma model)	number of activated (CD11c+CD86+/CCR7+) DCs in draining lymph nodes [1]	effect on tumor growth or survival [2]	immunogenicity of cancer stem cells after incubation [3]
5′-TCGTCGTTTTGTCGTTTTGTCGTT-3′ [CpG ODN]	not effective; also recorded: failed to cause sustained tumor regression	significant increase	no effect	
INF-gamma: interferon-gamma in which cancer stem cells were incubated (protein, UniProt P01579 24-161, looked up) Interferon gamma: QDPYVKEAENLKKYFNAGHSDVADNGTLFLGILKNWKEESDRKIMQSQIVSFYFKLFKNFKDDQSIQKSVETIKEDMNVKFFNSNKKKRDDFEKLTNYSVTDLNVQRKAIHELIQVMAELSPAAKTGKRKRSQMLFRG				restores their immunogenecity
